For ten compounds, IC50 results are on record in US7998952B2, “Thiolactams and uses thereof” (Millennium Pharmaceuticals, Inc., priority 2008, dated 2011).

The target in the experiment is T1, recombinant human PLK1[2-369]T210D (Homo sapiens, UniProt P53350, T210D).
T1 construct: recombinant human PLK1[2-369]T210D; Smt (SUMO) fusion partner (N, cleaved yes); host or cells: E. coli
The experiment in a line: PLK1 DELFIA Kinase Assay. In kind it is biochemical. The following applies: 50 μM ATP, 2 μM peptide substrate, 0.3 nM enzyme, 90 minutes at room temperature. In short, it runs like this: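 E. coli-expressed human PLK1, cleaved from an Smt fusion after Ni2+ purification, is reacted with or without inhibitor for 90 minutes at room temperature and stopped with EDTA. Product is captured on Neutravidin plates and quantified by europium DELFIA time-resolved fluorescence.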

T1 sequence (P53350 2-369 T210D): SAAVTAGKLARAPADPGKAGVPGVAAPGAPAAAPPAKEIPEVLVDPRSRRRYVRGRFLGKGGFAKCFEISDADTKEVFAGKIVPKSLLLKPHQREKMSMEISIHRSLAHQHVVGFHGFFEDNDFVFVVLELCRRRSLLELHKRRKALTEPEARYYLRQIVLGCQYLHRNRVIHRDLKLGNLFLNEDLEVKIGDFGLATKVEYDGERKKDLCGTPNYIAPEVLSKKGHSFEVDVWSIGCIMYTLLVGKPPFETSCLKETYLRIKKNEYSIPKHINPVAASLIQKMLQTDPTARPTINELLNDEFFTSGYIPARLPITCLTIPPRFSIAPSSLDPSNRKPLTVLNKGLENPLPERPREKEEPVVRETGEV

One may read the IC50 as the concentration at which inhibition is half-maximal. For `Cc1nc(N2CCC(N(C)C)CC2)ccc1Nc1ncc2c(n1)-c1ccc(C(F)(F)F)cc1NC(=S)C2` [Compound I-29, 2-({6-[4-(dimethylamino)piperidin-1-yl]-2-methylpyridin-3-yl}amino)-9-(trifluoromethyl)-5,7-dihydro-6H-pyrimido[5,4-d][1]benzazepine-6-thione], the half-inhibitory concentration (IC50) is under 5 nM.

Take `CCN1[C@H](C)CN(c2cnc(C)c(Nc3ncc4c(n3)-c3ccc(Cl)cc3NC(=S)C4)c2)C[C@@H]1C` [Compound I-49, 9-chloro-2-({5-[(3R,5S)-4-ethyl-3,5-dimethylpiperazin-1-yl]-2-methylpyridin-3-yl}amino)-5,7-dihydro-6H-pyrimido[5,4-d][1]benzazepine-6-thione]: the IC50 was under 5 nM.

Take `COc1ccc2c(c1)NC(=S)Cc1cnc(Nc3cc(CCCN(C)C)cnc3C)nc1-2` [Compound I-1, 2-({5-[3-(dimethylamino)propyl]-2-methylpyridin-3-yl}amino)-9-methoxy-5,7-dihydro-6H-pyrimido[5,4-d][1]benzazepine-6-thione]: the IC50 was under 5 nM.

Consider `Cc1ncc(CCN(C)C)cc1Nc1ncc2c(n1)-c1ccc(C(F)(F)F)cc1NC(=S)C2` [Compound I-50, 2-({5-[2-(dimethylamino)ethyl]-2-methylpyridin-3-yl}amino)-9-(trifluoromethyl)-5,7-dihydro-6H-pyrimido[5,4-d][1]benzazepine-6-thione], for which the IC50 is under 5 nM.

As to `Cc1nc(N2CCCC(N(C)C)C2)ccc1Nc1ncc2c(n1)-c1ccc(Cl)cc1NC(=S)C2` (stereo not shown) [Compound I-7, 9-chloro-2-({6-[3-(dimethylamino)piperidin-1-yl]-2-methylpyridin-3-yl}amino)-5,7-dihydro-6H-pyrimido[5,4-d][1]benzazepine-6-thione], the IC50 is under 5 nM.

Take `Cc1ncc(CCCO)cc1Nc1ncc2c(n1)-c1ccc(C(F)(F)F)cc1NC(=S)C2` [Compound I-55, 2-{[5-(3-hydroxypropyl)-2-methylpyridin-3-yl]amino}-9-(trifluoromethyl)-5,7-dihydro-6H-pyrimido[5,4-d][1]benzazepine-6-thione]: the IC50 was under 5 nM.

For the compound `CN(C)CCCc1cnc(F)c(Nc2ncc3c(n2)-c2ccc(Cl)cc2NC(=S)C3)c1` [Compound I-27, 9-chloro-2-({5-[3-(dimethylamino)propyl]-2-fluoropyridin-3-yl}amino)-5,7-dihydro-6H-pyrimido[5,4-d][1]benzazepine-6-thione], the IC50 is under 5 nM.

Regarding `CN1CCN(c2ccc(Nc3ncc4c(n3)-c3ccc(C(F)(F)F)cc3NC(=S)C4)cn2)CC1` [Compound I-61, 2-{[6-(4-methylpiperazin-1-yl)pyridin-3-yl]amino}-9-(trifluoromethyl)-5,7-dihydro-6H-pyrimido[5,4-d][1]benzazepine-6-thione], the IC50 is under 5 nM.

Consider `Cc1nc(NC2CCN(C)CC2)ccc1Nc1ncc2c(n1)-c1ccc(C(F)(F)F)cc1NC(=S)C2` [Compound I-92, 2-({2-methyl-6-[(1-methylpiperidin-4-yl)amino]pyridin-3-yl}amino)-9-(trifluoromethyl)-5,7-dihydro-6H-pyrimido[5,4-d][1]benzazepine-6-thione], for which the IC50 is under 5 nM.

`COc1ncc(CCCN(C)C)cc1Nc1ncc2c(n1)-c1ccc(Cl)cc1NC(=S)C2` [Compound I-24, 9-chloro-2-({5-[3-(dimethylamino)propyl]-2-methoxypyridin-3-yl}amino)-5,7-dihydro-6H-pyrimido[5,4-d][1]benzazepine-6-thione]: the IC50 was under 5 nM.
